# Results reported in US20100055111A1, “INDOLEAMINE 2,3-DIOXYGENASE, PD-1/PD-L PATHWAYS, AND CTLA4 PATHWAYS IN THE ACTIVATION OF REGULATORY T CELLS” (Med. College of Georgia Research Institute, Inc., priority 2007, published 2010).
# Entries after “also recorded” stand apart in the source; their conditions may differ.
# Columns and labels:
# [1] = test system: Tregs; experiment: Treg activation culture and readout assays (agent in pre-activation step); type: cell-based, mouse; conditions: for IDO-induced Treg activation (suppressor activity of re-sorted Tregs in readout assays): agent added to activation (pre-activation) cultures with TDLN pDCs + OT-I + feeder cells, 1MT 200 uM, anti-CTLA4 10 ug/ml, tryptophan 250 uM, readout A1 T cells + CBA DCs
# Experimental: Treg activation culture and readout assays. […] The pDC fraction (CD11c^+B220^+) was sorted from 2-6 pooled TDLNs (day 7-11 of tumor growth) and collected in medium on ice. […] […] […] After two days, cultures were harvested, stained for CD4, and Tregs isolated by sorting for CD4^+ cells. […] Re-sorted Tregs were added to readout assays containing 1×10^5 A1 cells, 2×10^3 CD11c^+ DCs from CBA spleen (or 5×10^4 B cells, as CD11c^NEG B220^+ spleen cells), plus H-Y peptide. For assays performed in transwells, Multiwell 96-well insert plates (1 uM pore size, BD-Falcon) were used and the number of cells in all groups was doubled.
# Feeder layer. […] As a feeder layer we added T cell-depleted spleen cells (1×10^5 sorted CD4^NEGCD8^NEG cells) to all assays.
# Resting Tregs, from spleens of mice without tumors, were co-cultured with IDO^+ DCs from TDLNs, then re-sorted and transferred to readout assays (A1 T cells+CBA DCs) to measure suppression. […] Co-cultures also contained a feeder layer of T-depleted spleen cells as described in the Methods section. After 30-48 hours, co-cultures were harvested and the Tregs recovered by sorting for CD4^+ cells. Since the Tregs were the only CD4^+ cells in the co-cultures, they could be unambiguously recovered.
# [2] = test system: TDLN cells; type: in vivo, mouse
# [3] = test system: P815; conditions: Uyttenhove et al., 2003; concomitant administration of 1-MT; cited from earlier work
# [4] = test system: OT-I cells in TDLNs; experiment: CFSE labeling and T cell adoptive transfer; type: in vivo, mouse; conditions: B16-OVA tumors, 4 days after transfer
# Description: CFSE labeling and T cell adoptive transfer. Mice were implanted with B16-OVA tumors. […] After four days, the TDLNs and contralateral LNs (CLN) were harvested and stained for 1B11 (BD-Pharmingen) vs. CD8.
# [5] = test system: Foxp3; experiment: Foxp3 upregulation in naive CD4+CD25NEG A1 T cells in cocultures with IDO+ pDCs; type: cell-based, mouse
# Experimental: FACS staining. Antibodies were from BD-Pharmingen unless otherwise noted. […] For intracellular staining of CHOP, live cells were first blocked for 10 minutes with mouse Fc Block (BD Pharmingen) in 10% fetal calf serum medium, stained with anti-CD4-FITC for 30 minutes on ice, washed with PBS, then fixed and permeablized for 20 minutes in 250 μl Cytoperm/Cytofix solution (BD Pharmingen) on ice. All subsequent staining and wash steps were in BD Permwash solution. […] For Foxp3 staining, assays omitted A1 bystander cells and Tregs were identified by CD4 expression, as for CHOP staining.
# Therefore, whether IDO would induce naive CD4+ cells to differentiate into Foxp3^+ cells in this system was studied. Cocultures were set up as shown for FIG. 6A, comprising IDO^+ pDCs, OT-I, feeder cells, mature Tregs (Thy1.1 congenic), plus a population of CD4^+CD25^NEG T cells (naive male-specific A1 T cells isolated from female mice). CBA splenic DCs were also added to serve as APCs for the A1 cells. After two days, co-cultures were harvested and stained for intracellular Foxp3.
# [6] = test system: PD-L1 and PD-L2; experiment: PD-L1 and PD-L2 staining of DCs in readout assays; type: cell-based, mouse; conditions: Tregs from pre-activation cultures in which IDO was blocked with 1MT
# Experimental: FACS staining. Antibodies were from BD-Pharmingen unless otherwise noted. Anti-mouse CD25-APC conjugate (clone PC61, cat. #17-0251-81) was from eBioscience; this conjugate gave brighter signal and better separation of CD25^+ cells than other conjugates from other suppliers. For intracellular staining of CHOP, live cells were first blocked for 10 minutes with mouse Fc Block (BD Pharmingen) in 10% fetal calf serum medium, stained with anti-CD4-FITC for 30 minutes on ice, washed with PBS, then fixed and permeablized for 20 minutes in 250 μl Cytoperm/Cytofix solution (BD Pharmingen) on ice. All subsequent staining and wash steps were in BD Permwash solution. Fixed cells were stained with 1:100 dilution of monoclonal anti-gadd153/CHOP (sc-7351, Santa Cruz Biotechnology), washed, and stained with secondary monoclonal rat anti-mouse-IgG1-PE (#550083, BD Biosciences). […] For Foxp3 staining, anti-Foxp3-PE antibody (clone FJK-16s) was obtained from eBioscience and used per the manufacturer's protocol. […]
# After 24 hours, cultures were harvested and stained for PD-L1 and PD-L2 relative to CD11c. […] In FIG. 3D, IDO-activated Tregs (1×10^4/well) and anti-CD3/IL-2-activated Tregs (2×10^4/well) were prepared as in the previous panel, and added to readout assays with or without recombinant IL-2, anti-IL-10 plus anti-TGF-β blocking antibodies (100 μg/ml each), or PD-1/PD-L blocking antibodies. […]
# [7] = test system: Tregs in TDLNs; conditions: sustained-release 1MT throughout tumor growth
# Experimental: Recombinant mouse IL-2 (R&D Systems) was used at 10 ng/ml.
# Tregs from day seven TDLNs were sorted and added to readout assays (A1 T cells plus CBA DCs), with and without PD-1/PD-L blocking antibodies. […] Tregs from day seven tumors were tested in readout assays as above, with added isotype, PD-1/PD-L blocking antibodies, or a combination of anti-PD-1/PD-L plus IL-2 plus anti-IL-10/TGF-β antibodies.
# [8] = test system: Lewis Lung carcinoma; conditions: Friberg et al., 2002; cited from earlier work
# [9] = test system: Tregs; experiment: DC adoptive transfer; type: in vivo, mouse; conditions: recipient mice treated with sustained-release 1MT pellets 5 mg/day; Tregs sorted after 4 days
# Description: DC adoptive transfer. […] Briefly, total CD11c^+ DCs were sorted from TDLNs, pulsed with […] peptide (SEQ ID NO:1), and 5×10^4 DCs injected subcutaneously into each anteriomedial thigh of recipient mice. Recipients had been pre-loaded one day before DC injection with 5×10^6 sorted CD8^+ OT-I cells. After four days, the inguinal LNs draining the site of DC injection were removed, and CD4^+CD25^+ Tregs were isolated by cell sorting.
# IDO^+ DCs from TDLNs activate Tregs in vivo. To test the hypothesis that Treg activation in TDLNs might be related to the presence of IDO-expressing DCs, the DC population (CD11c^+ cells) from TDLNs was isolated and transferred to new, non-tumor-bearing hosts. […] Four days after DC transfer, host Tregs were sorted from LNs draining the site of DC injection and tested for suppressor activity. […] Thus, the DC fraction from TDLNs, by itself, was sufficient to activate resting Tregs in new hosts, in an IDO-dependent fashion.
# [10] = test system: CHOP; experiment: Intracellular staining for CHOP in Treg activation cultures; type: cell-based, mouse; conditions: 2 days
# Experimental: FACS staining. Antibodies were from BD-Pharmingen unless otherwise noted. Anti-mouse CD25-APC conjugate (clone PC61, cat. #17-0251-81) was from eBioscience; this conjugate gave brighter signal and better separation of CD25^+ cells than other conjugates from other suppliers. For intracellular staining of CHOP, live cells were first blocked for 10 minutes with mouse Fc Block (BD Pharmingen) in 10% fetal calf serum medium, stained with anti-CD4-FITC for 30 minutes on ice, washed with PBS, then fixed and permeablized for 20 minutes in 250 μl Cytoperm/Cytofix solution (BD Pharmingen) on ice. All subsequent staining and wash steps were in BD Permwash solution. Fixed cells were stained with 1:100 dilution of monoclonal anti-gadd153/CHOP (sc-7351, Santa Cruz Biotechnology), washed, and stained with secondary monoclonal rat anti-mouse-IgG1-PE (#550083, BD Biosciences). […] For Foxp3 staining, anti-Foxp3-PE antibody (clone FJK-16s) was obtained from eBioscience and used per the manufacturer's protocol. For Foxp3 staining, assays omitted A1 bystander cells and Tregs were identified by CD4 expression, as for CHOP staining. Biotinylated anti-PD-L1 (clone MIH5) and anti-PD-L2 (clone TY25) were purchased from eBioscience.
# GCN2-kinase is required for Treg activation. […] Treg activation cultures were set up as in FIG. 2, and CHOP expression measured by intracellular staining after two days.
# [11] = test system: Tregs; experiment: Mixed co-cultures with bystander A1 cells; type: cell-based, mouse
# Experimental: A1 T cells and CBA DCs were added directly to the Treg pre-activation assay at the start of culture. Thus, the combined cultures comprised IDO^+ pDCs, OT-I T cells, Tregs, A1 T cells, CBA splenic DCs, and feeder layer. […] However, the mixed co-cultures addressed the specific question of whether IDO and activated Tregs could produce effective levels of suppression rapidly enough that they could suppress the bystander A1 cells before they could begin dividing. […] In each case, parallel titrations were performed with or without the addition of anti-CD3 mAb. […] In the absence of Tregs there was substantial proliferation of T cells in co-cultures, despite the presence of IDO^+ pDCs. However, the addition of fewer than 5000 Tregs was sufficient to suppress proliferation of all cells in culture. […] Thus, the results of the mixed co-culture model were similar to those using the separate pre-activation and re-sorting step.
# In FIG. 12A, mixed co-cultures were established as in FIG. 11, comprising Treg activation cultures (IDO^+ pDCs, OT-I cells, Tregs, and feeder layer) plus the direct addition of CFSE-labeled CD4^+ sorted A1 T cells plus CBA DCs plus HY peptide. After 2-3 days the mixed co-cultures were harvested and stained for CD25 versus CFSE. […] In FIG. 12B, IDO-activated Tregs were sorted as described in FIG. 2 and added to readout assays of A1 cells plus CBA DCs plus HY peptide. […]
# [12] = test system: IDO-activated Tregs; experiment: Readout assays: suppression of A1 T cell proliferation by IDO-activated Tregs (agent in readout assay); type: cell-based, mouse; conditions: agent added to readout assay (A1 T cells + wild-type CBA DCs); antibodies 50 ug/ml each
# Experimental: Treg activation culture and readout assays. […] The pDC fraction (CD11c^+B220^+) was sorted from 2-6 pooled TDLNs (day 7-11 of tumor growth) and collected in medium on ice. […] All cultures received a feeder layer of 1×10^5 T cell-depleted spleen cells (CD4^NEGCD8^NEG), as described below. […] After two days, cultures were harvested, stained for CD4, and Tregs isolated by sorting for CD4^+ cells. […] Re-sorted Tregs were added to readout assays containing 1×10^5 A1 cells, 2×10^3 CD11c^+ DCs from CBA spleen (or 5×10^4 B cells, as CD11c^NEG B220^+ spleen cells), plus H-Y peptide. For assays performed in transwells, Multiwell 96-well insert plates (1 uM pore size, BD-Falcon) were used and the number of cells in all groups was doubled.
# [13] = test system: anti-CD3-activated Tregs; experiment: Readout assays: suppression by anti-CD3/IL-2-activated Tregs; type: cell-based, mouse; conditions: agent added to readout assay
# Experimental: Treg activation culture and readout assays. […] The pDC fraction (CD11c^+B220^+) was sorted from 2-6 pooled TDLNs (day 7-11 of tumor growth) and collected in medium on ice. Pre-activation cultures contained 2×10^3 pDCs, 1×10^5 sorted CD8^+ OT-I cells, 100 nM […] peptide (SEQ ID NO:1), and 5×10^3 sorted CD4^+CD25^+ Tregs from spleens of B6 mice without tumors. All cultures received a feeder layer of 1×10^5 T cell-depleted spleen cells (CD4^NEGCD8^NEG), as described below. […] After two days, cultures were harvested, stained for CD4, and Tregs isolated by sorting for CD4^+ cells. […] Re-sorted Tregs were added to readout assays containing 1×10^5 A1 cells, 2×10^3 CD11c^+ DCs from CBA spleen (or 5×10^4 B cells, as CD11c^NEG B220^+ spleen cells), plus H-Y peptide. For assays performed in transwells, Multiwell 96-well insert plates (1 uM pore size, BD-Falcon) were used and the number of cells in all groups was doubled.
# After 24 hours, cultures were harvested and stained for PD-L1 and PD-L2 relative to CD11c. […] In FIG. 3D, IDO-activated Tregs (1×10^4/well) and anti-CD3/IL-2-activated Tregs (2×10^4/well) were prepared as in the previous panel, and added to readout assays with or without recombinant IL-2, anti-IL-10 plus anti-TGF-β blocking antibodies (100 μg/ml each), or PD-1/PD-L blocking antibodies. Bars show SD for replicate wells in one of four similar experiments; *p<0.01 by ANOVA.
molecule,measurement,setting,value
N[C@@H](Cc1c[nH]c2ccccc12)C(=O)O [tryptophan],IDO-induced Treg activation (suppressor activity of re-sorted Tregs in readout assays),[1],blocked
O=P1(N(CCCl)CCCl)NCCCO1 (centres unmarked) [cyclophosphamide],suppressor activity of TDLN cells after in vivo treatment,"[2]; B78H1-GMCSF tumors treated day 11, CY 150 mg/kg, 1MT pellets, TDLN cells 7 days later, readout BM3 T cells + B6 splenocytes",only slightly
"Cn1cc(C[C@@H](N)C(=O)O)c2ccccc21 [1MT, 1-methyl-D-tryptophan]",effect of IDO transfection of P815 on tumor growth in pre-immunized hosts,[3],substantially reversed
same,1B11 activation marker on OT-I in TDLNs,[4]; oral 1MT 2 mg/ml in drinking water,uniformly upregulate
same,cell division of OT-I in TDLNs (CFSE),[4]; oral 1MT,not able to undergo extensive cell division
same,cell division of A1 cells (CFSE),[5]; CFSE-labeled A1 and OT-I cells,divided
same,upregulation of Foxp3 in A1 cells,"[5]; with H-Y peptide, 2 days",prevented
same,PD-ligand expression by DCs in readout assays,[6],low
same,PD-1/PD-L-dependent type of Treg activity in TDLNs,[7],none
same,IDO-induced Treg activation (suppressor activity of re-sorted Tregs in readout assays),[1],no suppressor activity; also recorded: complete abrogation of activation; also recorded: minimal suppression; also recorded: completely abolished
same,Treg activation,[1]; feeder layer replaced by recombinant cytokines (IFNα + IL-10 + TGF-β1),abrogated
same,tumor outgrowth,[8],significantly delayed
same,activation of host Tregs by DCs from TDLNs,[9],blocked
same,suppression by TDLN cells of untreated control mice,[2]; 1MT added to the readout assays,not affected
same,CHOP expression in OT-I cells,[10],abrogated
same,CHOP induction in Tregs,[10]; anti-Ia^b 100 ug/ml,prevented
same,suppressor activity of Tregs in mixed co-cultures,"[11]; IDO blocked by 1MT, 10-fold more Tregs, absence of anti-CD3 mAb",no spontaneous suppressor activity
same,division of A1CFSE cells in mixed co-cultures,"[11]; plus 1MT, 2-3 days",able to divide
"recombinant IL-2: Recombinant mouse IL-2 (R&D Systems), used at 10 ng/ml (protein, UniProt P04351 21-169, looked up) Interleukin-2: APTSSSTSSSTAEAQQQQQQQQQQQQHLEQLLMDLQELLSRMENYRNLKLPRMLTFKFYLPKQATELKDLQCLEDELGPLRHVLDLTQSKSFQLEDAENFISNIRVTVVKLKGSDNTFECQFDDESATVVDFLRRWIAFCQSIISTSPQ",suppression of T cell proliferation by IDO-activated Tregs,[12],no effect
same,suppression by anti-CD3-activated Tregs,[13],fully reversed
